From patent US4812481A, “Synergistic combination of amantadiene and selegiline” (Degussa Aktiengesellschaft, priority 1986, dated 1989)

Experiments:
akinetic crisis = experiment: improvement of the akinetic crisis (critical deteriorations of the Morbus Parkinson); format: in vivo, human; conditions: intravenous amantadine, without or with addition of selegiline
Parkinson's disease = experiment: anti-Parkinsonism action in human (Webster scale, disability score); format: in vivo
Text: The effect of the anti-Parkinsonism action is established, for example, by Webster, D. D., Med. Treat. (N.Y.) 5, pp. 257-282, 1968. Here, the different symptoms are assigned and weighted after application of the monosubstance amantadine or the combination:
1. Slowed motor response of the hands
2. Rigor (elevation of the muscle tone)
4. Simultaneous swinging of the upper extremities
10. Ability to stand alone.
An anti-Parkinsonism action is present if the sum of the values resulting from the Webster scale (the so-called disability score) is lower than the initial value without medication (<30). The synergistic effect of the combination results from the following: When selegiline is used in addition, the sum of the disability score is lower than that which would have been achieved if only amantadine had been used and/or the duration of the effectiveness of amantadine is extended.

| Structure (SMILES) | onset of improvement of the akinetic crisis (akinetic crisis) | anti-Parkinsonism action (Parkinson's disease; Parkinson's disease, compared to pure amantadine) | improvement of the symptoms of Parkinson (Webster sums) (Parkinson's disease; early stages of Morbus Parkinsonism) |
| --- | --- | --- | --- |
| NC12CC3CC(CC(C3)C1)C2 [amantadine, 1-amino-adamantane] | relatively slowly setting in improvement of the akinetic crisis | – | – |
| C#CCN(C)[C@H](C)Cc1ccccc1 [selegiline, N-(1-phenyl-2-propyl)-N-methyl-2-propinylamine] | – | almost no anti-Parkinsonism action | does not show sufficient effect in regard to improving the symptoms of the Parkinson symptomatics |
